Here are results for six compounds from US20230010299A1, “HETEROCYCLIC TRPML1 AGONISTS” (LIBRA THERAPEUTICS, INC., priority 2019, published 2023).

One assay addresses T1, TRPML1 (Homo sapiens, UniProt Q9GZU1).
T1 construct: expressed in transfected cells
Kind of assay: Cellular TRPML1 assay (FLIPR TETRA, GCaMP6f calcium read-out). Format: cell-based. Conditions: HEK T-REx/GCaMP6f/TRPML1 cells; Ca2+ response over 300 s, normalized to ML-SA1 50 μM; Ca2+ free or Optimem condition not given; read-out: Ec50 (Activity of TRPML1 agonists). Put shortly: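 HEK T-REx cells stably expressing TRPML1 and GCaMP6f, assayed 24 h after seeding in Ca2+-free Tyrode's (pH 7.4) or Opti-MEM. Compounds injected on FLIPR Tetra (0.5% DMSO) in dose-response from 100 μM (1:2) or 50 μM (1:3.16); fluorescence kinetics 300 s, referenced to 50 μM ML-SA1 stimulator control.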

In assay [1] the test system is autophagy reporter Rosella (LC3 tag) in HeK293 cell line. Put plainly: Autophagy assay (reporter Rosella, imaging). Format: cell-based. Conditions: Homo sapiens; HeK293 cells stably expressing reporter Rosella; 18 hours incubation; reference Torin-1 1 μM as max signal; read-out: Secondary Assays Autophagy qAC50. On the procedure:
Buffers and Reagents • Tyrode's buffer with 2 mM Ca^2+ in-house solution (130 mM NaCl, 5 mM KCl, 2 mM CaCl2), 1 mM MgCl2, 5 mM NaHCO3, 20 mM HEPES in water at pH 7.4; sterile filtered) • DMSO (Sigma) • Bis-benzimide H 33342 trihydrochloride (Hoechst 33342; Sigma-Aldrich) • Reference molecule (agonist): Torin-1, (#4247, Tocris) stock 1.2 mM in DMSO, stored at −20° C.
Reporter of Autophagy and Cell Line
Reporter Rosella: a fluorescent-based chimera constitutes by two fluorescent proteins, Green and Red variants, acting as a bimodal indicator of pH. […] The reporter is fused to sequence for autophagosome localization (LC3 tag).
The reporter Rosella have been stably expressed in HeK293 cell line and used as read-out.
Experiments have been performed in 384 MTP poly-lysine coated well format. Cells have been seeded in 384-w at a density of 6000 cells/well in 25 μl/well complete growth medium without antibiotics. Twenty-four hours later, cells have been treated with compounds and incubated for further 18 hours. Then the cells have been imaged and assayed for the response to various compounds using the reporter for autophagy expressed in the cells as readout.
The experiments were performed in a 384-well format according to the following procedure: • 24 h after seeding, cells were incubated with compounds at the desired concentration, and with the reference molecule (agonist) Torin-1 at a top concentration of 1 μM (max signal), for 18 hours at 37° C. and 5% CO2. The final percentage of DMSO was 0.3% in all the conditions. • Then the culture medium was carefully removed to avoid cells detachment and to discard red phenol into the medium and that can interfere with the measurements. • Staining of the nuclei was obtained by incubating the cells with 8 μM/well of Hoechst 3342 in standard Tyrode's buffer for 20 min at RT • Then the cells were carefully washed two times with standard Tyrode's buffer • Finally, the samples were acquired by recording three fluorescence emission channels (green, red and blue) at 20× magnification and with at least 3-4 fields of view per well in an Operetta CLS microscope (PerkinElmer). • Image analysis was performed by using Harmony software (PerkinElmer). The image analysis involved the following steps: flat-field illumination correction, nuclei segmentation, cell segmentations and identification of vesicles/granules within the cytosol compartments and representing the autophagy vesicles. Measurements of signal intensity ratio (Green to Red) and number of autophagy vesicles per cells were used to obtain information on the effects of compounds on the autophagy flux. • Data from image analysis measurements were finally loaded and analyzed for normalization and fitting procedures in Genedata Screener© software.

T1 sequence (Q9GZU1 whole entry): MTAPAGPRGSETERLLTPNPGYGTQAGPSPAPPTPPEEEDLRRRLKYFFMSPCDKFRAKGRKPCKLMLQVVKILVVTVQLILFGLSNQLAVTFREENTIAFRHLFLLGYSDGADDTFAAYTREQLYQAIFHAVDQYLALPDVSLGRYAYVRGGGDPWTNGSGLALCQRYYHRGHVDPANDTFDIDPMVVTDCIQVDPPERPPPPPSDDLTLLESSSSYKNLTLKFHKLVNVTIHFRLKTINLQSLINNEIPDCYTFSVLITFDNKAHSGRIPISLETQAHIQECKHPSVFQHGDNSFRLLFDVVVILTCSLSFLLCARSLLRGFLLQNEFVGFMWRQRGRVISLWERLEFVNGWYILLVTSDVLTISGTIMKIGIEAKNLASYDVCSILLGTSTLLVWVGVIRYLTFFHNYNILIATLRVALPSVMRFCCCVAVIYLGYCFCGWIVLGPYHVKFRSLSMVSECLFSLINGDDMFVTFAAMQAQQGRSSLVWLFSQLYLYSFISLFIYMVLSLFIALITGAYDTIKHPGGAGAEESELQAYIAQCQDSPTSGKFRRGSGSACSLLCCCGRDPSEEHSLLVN

`CN(C)S(=O)(=O)c1ccc(S(=O)(=O)Nc2ccccc2N2CCN(C(=O)OC(C)(C)C)CC2)cc1` [Example 13, tert-butyl 4-{2-[4-(dimethylsulfamoyl)benzenesulfonamido]phenyl}piperazine-1-carboxylate]: the EC50 came out at 2.1 µM on TRPML1 and 0.52 µM in assay [1].
On the same counts, the results for `CN(C)S(=O)(=O)c1ccc(S(=O)(=O)NC2CCCCC2N2CCC(Oc3ccccc3)CC2)cc1` (racemic) [Example 57, N1,N1-dimethyl-N4-[2-(4-phenoxypiperidin-1-yl)cyclohexyl]benzene-1,4-disulfonamide] are 3 µM and 1.8 µM.
Turning to `CN(C)S(=O)(=O)c1ccc(S(=O)(=O)Nc2ccccc2N2CCCCC2)cc1` [Example 6, N1,N1-dimethyl-N4-[2-(piperidin-1-yl)phenyl]benzene-1,4-disulfonamide], the EC50 at TRPML1 was 1.7 µM; in assay [1] it was 4.4 µM.
In the case of `CN(C)S(=O)(=O)c1ccc(S(=O)(=O)Nc2ccccc2N2CCC(C(=O)OC(C)(C)C)CC2)cc1` [Example 76, f-butyl 1-{2-[4-(dimethylsulfamoyl)benzenesulfonamido]phenyl}piperidine-4-carboxylate], the EC50 amounted to 1.3 µM on TRPML1 and 0.059 µM in assay [1].
On the same counts, the results for `CN(C)S(=O)(=O)c1ccc(S(=O)(=O)Nc2ccccc2N2CCC(Oc3cnccn3)CC2)cc1` [Example 77, N1,N1-dimethyl-N4-{2-[4-(pyrazin-2-yloxy)piperidin-1-yl]phenyl} benzene-1,4-disulfonamide] are 1.7 µM and 0.25 µM.
On the same counts, the results for `CN(C)S(=O)(=O)c1ccc(S(=O)(=O)Nc2ccccc2N2CCC(Oc3ccccn3)CC2)cc1` [Example 75, N1,N1-dimethyl-N4-{2-[4-(pyridin-2-yloxy)piperidin-1-yl]phenyl}benzene-1,4-disulfonamide] are 1.6 µM and 0.17 µM.
